This note sets out measurements from patent publication US9956232B2, “Dialkyl-phosphinoyl-alkane (Dapa) compounds and compositions for treatment of lower gastrointestinal tract disorders” (priority 2016, dated 2018).

Where “and” joins values, the source holds several entries; their conditions need not be identical. Identical values can stand only once. Entries after “also recorded” stand apart in the source; their conditions may differ.

For series [1], the system named is pentobarbital-anesthetized male rats. In words: Shaking frequency (wet-dog shaking) of anesthetized rats after intravenous, perioral or topical delivery. Format: in vivo. The conditions noted are these: anesthetized rat; for Shaking frequency, Intravenous: 2 mg/kg i.v., 2nd trial, counted for 15 min; for Shaking frequency, Perioral: 20 mg/kg by oral gavage, counted for 40 min; for Shaking frequency, Topical: 20 μL pure compound on shaved abdominal skin, counted for 1 hr. Here is the method: In experiments conducted here, test compounds were evaluated for “wet-dog shaking” as a model of cooling sensation. Using a standardized procedure, test compounds were compared in their ability to stimulate the shaking response by intravenous injection into a cannulated femoral vein, by perioral administration, and by topical delivery to the abdominal skin.
Each rat was given two injections with a 30 min interval. […] Shaking frequency was counted for 15 min after injection. Shaking was observed immediately after i.v. injection and at least 78% of the total shakes occurred in the first 5 min after injection. The response in the second trial was at least as robust in the first trial, showing the lack of desensitization.
Test compounds were dissolved in saline and administered by oral gavage to pentobarbital-anesthetized male albino rats at 20 mg/kg at a volume of 0.1 mL/100 g body weight [N=3 to 4 rats per compound]. Shaking was counted over a 40 min period and recorded at 10-min intervals.
For topical application of DAPA, the abdominal skin of the anesthetized rat was shaved and 20 μL of the pure DAPA was applied with a micropipette onto a ˜1 cm diameter circle of skin, enclosed with a ring of cream [Baby cream “Nevskaya kosmetika Detskyi” Nevskaya Kosmetika Inc., Saint-Petersburg 192029], as shown in FIG. 5D. The number of shakes was counted for 1 hr after application.

The target in series [2] is TRPM8 (Homo sapiens, UniProt Q7Z2W7). In words: TRPM8 receptor agonist assay (Fluo-8 calcium, FLIPR). Format: cell-based. The arrangement: host or cells: CHO cells, stably transfected. The conditions noted are these: for ×Menthol: TRPM8 relative potency as repeated in Table 4; for Relative Potency: relative to menthol = 1.0 (Table 2). Here is the method:
Compounds were tested on (CHO) cells stably transfected with human TRPM8 cDNAs using a Fluo-8 calcium kit and a Fluorescence Imaging Plate Reader ([…]™) instrument. […] Solutions were prepared by diluting stock solutions in a HEPES-buffered physiological saline (HBPS) solution. Test compound and control formulations were loaded in polypropylene or glass-lined 384-well plates, and placed into the FLIPR instrument (Molecular Devices Corporation, Union City, Calif., USA). Each was tested at 8 concentrations with n=4 replicates per determination. […] For […]™ assay, cells were plated in 384-well black wall, flat clear-bottom microtiter plates (Type: BD Biocoat Poly-D-Lysine Multiwell Cell Culture Plate) at approximately 30,000 cells per well. Cells were incubated at 37° C. overnight to reach a near confluent monolayer appropriate for use in a fluorescence assay. The test procedure was to remove the growth media and to add 40 μL of HBPS containing Fluo-8 for 30 minutes at 37° C. 10 μL of test compound, vehicle, or control solutions in HBPS were added to each well and read for 4 minutes. Concentration-response data were analysed via the FLIPR Control software that is supplied with the FLIPR System (MDS-AT) and fitted to a Hill equation.

The subject of series [3] is heat-induced edema in the anesthetized rat paw. In words: Heat-induced edema in the anesthetized rat paw. Format: in vivo. The conditions noted are these: 20 mg/mL, 0.3 mL per paw, 30 min before 58° C. water 1 min; relative to contralateral paw. An excerpt:
Inflammation is defined as the reaction of vascularized living tissue to local injury [Cotran, R S. 1989. Inflammation and repair. In Robbins: Pathologic Basis of Disease, ed. S. L. Robbins, R. S. Cotran, V. Kumar, 2:39-86. Philadelphia: Saunders. 4th ed.]. The characteristic signs of inflammation are redness, swelling, heat, and pain (and loss of function). The anti-inflammatory properties of the DAPA compounds were studied in a model of heat-induced vascular leakage [Wei et al. Method of inhibiting inflammatory response. U.S. Pat. No. 4,801,612; Wei et al., Anti-inflammatory peptide agonists. Annual Review Pharmacol Toxicol. 33:9-108, 1993]. When the paws of pentobarbital-anesthetized rats (200 to 300 g body weight) are immersed in 58° C. water for 1 min, the normal paw volume of about 1.8 mL was increased by ˜88% within 30 min, the swelling being due to an increase in water content of the paw.
Test compounds were dissolved in 20% water-80% R-1,2-propanediol at 20 mg/mL. The solutions were applied to the paw skin of pentobarbital-anesthetized rats (200 to 300 g body weight) at 0.3 mL per paw, using a syringe attached to a blunt 21 gauge needle covered at its tip with a piece of polyethylene 60 tubing. After distributing the solution over the paw, the paw was tightly enclosed in a plastic finger cut from a disposable glove. The contralateral paw [control] received only the vehicle. Thirty min after application, both paws were immersed in 58° C. water for 1 min. Thirty min after immersion, both paws were cut at ankle joint with scissors and weighed.
This degree of inhibition is significant for tissue protection as the injury stimulus is of supra-maximal intensity. The DAPA-2-5 effect was apparent to the untrained observer.

Series [4] in a line: Repeated-dose toxicity in male rats (organ weights, histology). Format: in vivo, rat. To be noted: 30 mg/kg subcutaneously daily for 7 days, male rats.
Series [5] deals with Strains TA 98 and TA100. The experiment in a line: Ames test. Format: cell-based. To be noted: TA 98 and TA100, with and without liver activation. Here is the method: Preliminary toxicological studies were conducted on DAPA-2-5 and DAPA-2-7.
On the technique in general: The Ames test detects mutagens through reverse mutation in bacteria.

Series [6] relates to isolated mouse vagus. In words: Capsaicin-induced depolarization of the isolated vagus nerve. An excerpt:
An isolated vagus nerve model was developed at Imperial College, London, U.K. [Birrell et al. TrpA1 agonists evoke coughing in guinea pig and human volunteers. Amer. J. respiratory and critical care medicine 180, 1042-7, 2009; Patel, H. J. et al. Inhibition of guinea-pig and human sensory nerve activity and the cough reflex in guinea-pigs by cannabinoid (CB2) receptor activation. Brit. J. Pharmacol. 140, 261-8, 2003]. In this in vitro assay, segments of the mouse vagus nerve are placed on a platform and the electrical activity is recorded after topical application of capsaicin. Capsaicin is a known irritant that elicits pain when it is applied to the skin and it will depolarize the isolated vagus. […] The similar effect of DAPA-2-5 in this test system was published in U.S. Ser. No. 14/55,042. Briefly, segments of vagus nerve, caudal to the nodose ganglion, were removed from mice with fine forceps and segments placed in oxygenated Krebs solution and bubbled with 95% O2/5% CO2. The desheathed nerve trunk was mounted in a ‘grease-gap’ recording chamber and constantly superfused with Krebs solution with a flow rate of approximately 2 mL/min, and the electrical activity of the nerve monitored with electrodes. The temperature of the perfusate was kept constant at 37° C. by a water bath. Nerve depolarizations were induced by superfusion of the nerve with capsaicin (1 μM). After two reproducible depolarization responses to capsaicin, DIPA-1-7 was applied at 1 mg/mL for 10 minutes in the perfusate followed by capsaicin.

Series [7] addresses TRPA1 (Homo sapiens, UniProt O75762). In words: TRPA1 selectivity assay, calcium entry in transfected CHO cells. Format: cell-based. The arrangement: expressed in transfected cells; host or cells: CHO cells. The conditions noted are these: maximum tested concentration 100 μM. An excerpt:
(§1) The selectivity of test compounds were examined on TRPV1 channels (human TRPV1 gene expressed in HEK293 cells) and TRPA1 channels (human TRPA1 gene expressed in CHO cells). The test cells were Chinese Hamster Ovary (CHO) cells or Human Embyronic Kidney (HEK) 293 cells transfected with human TRPV1 or TRPA1 cDNAs.
(§2) The ordinate is given in Relative Fluorescence Units; % of maximum, which measure calcium entry into the transfected cells and the abscissa is the logarithm of the concentration of the test compound.

The target of series [8] is TRPV1 (Homo sapiens, UniProt Q8NER1). The experiment in a line: TRPV1 selectivity assay, calcium entry in transfected HEK293 cells. Format: cell-based. The arrangement: expressed in transfected cells; host or cells: HEK293 cells. To be noted: maximum tested concentration 100 μM.
Sequence of TRPV1 (Q8NER1 whole entry): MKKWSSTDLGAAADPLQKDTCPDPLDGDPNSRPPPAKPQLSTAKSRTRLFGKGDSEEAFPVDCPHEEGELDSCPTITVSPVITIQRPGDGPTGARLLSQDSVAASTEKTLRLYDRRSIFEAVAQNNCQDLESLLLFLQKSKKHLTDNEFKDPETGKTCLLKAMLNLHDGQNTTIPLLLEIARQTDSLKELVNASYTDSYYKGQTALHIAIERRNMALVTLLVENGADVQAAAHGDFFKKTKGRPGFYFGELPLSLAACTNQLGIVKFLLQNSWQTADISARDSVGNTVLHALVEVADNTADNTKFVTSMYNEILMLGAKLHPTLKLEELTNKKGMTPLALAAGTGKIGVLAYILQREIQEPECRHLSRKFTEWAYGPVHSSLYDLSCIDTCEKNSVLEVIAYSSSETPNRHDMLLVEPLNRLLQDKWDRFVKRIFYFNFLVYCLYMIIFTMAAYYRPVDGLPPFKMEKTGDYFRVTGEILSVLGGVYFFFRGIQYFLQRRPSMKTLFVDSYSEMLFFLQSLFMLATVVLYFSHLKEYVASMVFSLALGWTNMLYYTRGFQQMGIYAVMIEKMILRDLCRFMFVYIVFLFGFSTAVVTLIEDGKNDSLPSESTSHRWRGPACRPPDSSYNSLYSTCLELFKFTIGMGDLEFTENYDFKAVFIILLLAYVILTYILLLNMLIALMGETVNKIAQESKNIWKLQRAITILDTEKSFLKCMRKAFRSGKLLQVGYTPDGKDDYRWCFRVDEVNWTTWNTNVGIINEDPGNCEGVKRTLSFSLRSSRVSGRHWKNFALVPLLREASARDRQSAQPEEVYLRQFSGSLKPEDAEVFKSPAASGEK
Description: as §1, §2

A word on the inhibition: it is the share of the control response that was lost under treatment.

Sequence of TRPA1 (O75762 whole entry): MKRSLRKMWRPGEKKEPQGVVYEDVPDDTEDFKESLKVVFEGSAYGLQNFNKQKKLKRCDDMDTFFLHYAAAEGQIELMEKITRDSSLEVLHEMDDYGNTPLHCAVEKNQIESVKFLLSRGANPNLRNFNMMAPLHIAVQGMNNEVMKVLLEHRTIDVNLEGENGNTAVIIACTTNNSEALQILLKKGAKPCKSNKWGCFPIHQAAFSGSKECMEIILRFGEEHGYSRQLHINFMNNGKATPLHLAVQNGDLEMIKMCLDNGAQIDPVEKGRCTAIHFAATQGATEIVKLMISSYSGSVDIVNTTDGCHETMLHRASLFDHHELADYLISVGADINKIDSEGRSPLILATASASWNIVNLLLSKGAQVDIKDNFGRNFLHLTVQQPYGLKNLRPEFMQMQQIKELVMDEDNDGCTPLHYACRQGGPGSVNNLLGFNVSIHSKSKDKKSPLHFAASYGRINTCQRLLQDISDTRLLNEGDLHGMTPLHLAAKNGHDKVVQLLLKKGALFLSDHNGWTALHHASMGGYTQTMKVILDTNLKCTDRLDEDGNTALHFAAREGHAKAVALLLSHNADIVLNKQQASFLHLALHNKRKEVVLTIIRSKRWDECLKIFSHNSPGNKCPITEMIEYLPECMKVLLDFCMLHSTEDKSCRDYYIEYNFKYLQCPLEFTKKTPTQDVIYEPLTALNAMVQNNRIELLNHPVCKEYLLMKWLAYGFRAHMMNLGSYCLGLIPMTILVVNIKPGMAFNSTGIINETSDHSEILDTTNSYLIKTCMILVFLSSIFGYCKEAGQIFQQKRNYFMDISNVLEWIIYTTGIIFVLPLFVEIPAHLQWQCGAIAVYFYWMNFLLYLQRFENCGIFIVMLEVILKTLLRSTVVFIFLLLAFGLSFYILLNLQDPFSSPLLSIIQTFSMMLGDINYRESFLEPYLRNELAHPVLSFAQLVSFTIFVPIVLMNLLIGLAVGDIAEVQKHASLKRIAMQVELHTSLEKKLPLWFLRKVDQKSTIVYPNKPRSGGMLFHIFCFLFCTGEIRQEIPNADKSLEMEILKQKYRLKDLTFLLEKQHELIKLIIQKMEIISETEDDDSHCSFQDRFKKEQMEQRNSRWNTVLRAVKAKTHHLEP
Sequence of TRPM8 (Q7Z2W7 whole entry): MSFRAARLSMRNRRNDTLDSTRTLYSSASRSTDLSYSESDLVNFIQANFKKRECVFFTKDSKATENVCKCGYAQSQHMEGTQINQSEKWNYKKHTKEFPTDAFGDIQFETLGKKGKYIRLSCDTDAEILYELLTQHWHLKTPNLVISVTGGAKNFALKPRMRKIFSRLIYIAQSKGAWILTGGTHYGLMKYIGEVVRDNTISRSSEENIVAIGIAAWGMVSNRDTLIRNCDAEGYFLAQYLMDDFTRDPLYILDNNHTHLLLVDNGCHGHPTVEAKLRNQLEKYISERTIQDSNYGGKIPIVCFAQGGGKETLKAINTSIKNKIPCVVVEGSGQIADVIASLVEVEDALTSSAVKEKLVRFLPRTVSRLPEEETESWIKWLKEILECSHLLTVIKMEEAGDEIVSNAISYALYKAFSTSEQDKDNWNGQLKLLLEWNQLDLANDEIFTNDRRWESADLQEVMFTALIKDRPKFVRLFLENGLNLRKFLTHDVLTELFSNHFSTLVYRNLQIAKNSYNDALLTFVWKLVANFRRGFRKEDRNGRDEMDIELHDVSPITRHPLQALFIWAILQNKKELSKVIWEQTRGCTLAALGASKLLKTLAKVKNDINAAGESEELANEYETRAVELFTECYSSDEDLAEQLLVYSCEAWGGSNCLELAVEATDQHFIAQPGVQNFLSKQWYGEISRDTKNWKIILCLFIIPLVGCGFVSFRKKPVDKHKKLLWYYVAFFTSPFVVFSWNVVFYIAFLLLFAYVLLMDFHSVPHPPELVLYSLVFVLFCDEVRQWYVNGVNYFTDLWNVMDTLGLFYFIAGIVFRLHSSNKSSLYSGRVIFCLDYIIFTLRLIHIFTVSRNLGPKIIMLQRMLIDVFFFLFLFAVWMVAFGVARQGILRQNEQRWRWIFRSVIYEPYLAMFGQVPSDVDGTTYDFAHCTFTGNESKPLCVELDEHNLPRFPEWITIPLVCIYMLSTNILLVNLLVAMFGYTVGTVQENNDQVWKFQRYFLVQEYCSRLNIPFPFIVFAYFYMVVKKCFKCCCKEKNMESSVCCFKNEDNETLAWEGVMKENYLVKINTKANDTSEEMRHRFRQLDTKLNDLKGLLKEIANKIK

As for `CCCCP(=O)(C(C)CC)C(C)CC` (centres unmarked) [DAPA-2-4, 1-Di(sec-butyl) phosphinoyl-butane], in series [1], the “Shaking frequency, Intravenous” value was determined as 8 ± 2 shakes; the “Shaking frequency, Perioral” value worked out at 0 shakes; the “Shaking frequency, Topical” value is on record as 0 shakes. Besides, in series [2], the “×Menthol” value was 0.3 and the “Relative Potency” value is 0.3.
`CCCCCCP(=O)(C(C)CC)C(C)CC` (centres unmarked) [DAPA-2-6, 1-Di(sec-butyl) phosphinoyl-hexane]: in series [3], the “Inhibition of Heat Edema (±S.E.M.)” value came to 2.9 ± 1.4%. Besides, in series [1], the “Shaking frequency, Intravenous” value is 30 ± 3 shakes; the “Shaking frequency, Perioral” value was 0 shakes; the “Shaking frequency, Topical” value was determined as 0 shakes. In addition, in series [2], the “×Menthol” value came to 4.7 and the “Relative Potency” value is reported as 4.7.
Turning to `CCCCCCCP(=O)(C(C)CC)C(C)CC` (centres unmarked) [DAPA-2-7, 1-Di(sec-butyl) phosphinoyl-heptane], the “Inhibition of Heat Edema (±S.E.M.)” value in series [3] is 5.2 ± 2.1%. Moreover, in series [4], the “body or organ weights vs vehicle” value is given as “no significant differences in body or organ weights”; the “heart and liver histology” value is “normal”. Further, in series [1], the “Shaking frequency, Intravenous” value amounted to 15 ± 2 shakes; the “Shaking frequency, Perioral” value turned out to be 0 shakes; the “Shaking frequency, Topical” value is on record as 0 shakes. For the same compound, the “mutagenicity in the Ames test” value in series [5] is “Neither of these compounds was mutagenic”. In series [2], the “×Menthol” value worked out at 3.4 and the “Relative Potency” value was 3.4.
Regarding `CCCCCCCCP(=O)(C(C)CC)C(C)CC` (centres unmarked) [DAPA-2-8, 1-Di(sec-butyl) phosphinoyl-octane], in series [1], the “Shaking frequency, Intravenous” value was 2. shakes; the “Shaking frequency, Perioral” value is listed as 0 shakes; the “Shaking frequency, Topical” value was 0 shakes. In addition, in series [2], the “×Menthol” value is 2.9 and the “Relative Potency” value was 2.9.
As to `CCCCCP(=O)(CC(C)C)CC(C)C` [DAPA-3-1, 1-Di(iso-butyl) phosphinoyl-pentane], the “Relative Potency” value in series [2] amounted to 0.2.
As for `CCC(C)P(=O)(CCC(C)C)C(C)CC` (centres unmarked) [DAPA-3-2, 1-Di(sec-butyl) phosphinoyl-3-methyl-butane], the “Relative Potency” value in series [2] turned out to be 0.9.
On to `CCCCCP(=O)(C(C)C)C(C)C` [DIPA-1-5, 1-Diisopropyl-phosphinoyl-pentane], for which, in series [1], the “Shaking frequency, Intravenous” value turned out to be 19 ± 3 shakes; the “Shaking frequency, Perioral” value is 86 shakes and 86 ± 7 shakes; the “Shaking frequency, Topical” value was 138 ± 15 shakes. In series [2], the “×Menthol” value is 0.7 and the “Relative Potency” value amounted to 0.7.
On to `CCCCCCP(=O)(C(C)C)C(C)C` [DIPA-1-6, 1-Diisopropyl-phosphinoyl-hexane], for which, in series [1], the “Shaking frequency, Intravenous” value amounted to 39 ± 4 shakes; the “Shaking frequency, Perioral” value was 56 shakes and 56 ± 5 shakes; the “Shaking frequency, Topical” value is given as 69 ± 8 shakes. Also, in series [2], the “×Menthol” value turned out to be 1.6 and the “Relative Potency” value is given as 1.6.
Take `CCCCCCCP(=O)(C(C)C)C(C)C` [DIPA-1-7, 1-Diisopropyl-phosphinoyl-heptane]: the inhibition at 1000 µg/mL in series [6] (isolated TRPM8 knock-out mouse vagus, 1 mg/mL, capsaicin 1 μM, read-out: percent inhibition of capsaicin-induced depolarization) is roughly 20%. Besides, the “depolarization evoked by the compound by itself” value in series [6] (isolated mouse vagus, no capsaicin) is given as “did not evoke depolarization”. The “percent inhibition of capsaicin-induced depolarization” value in series [6] (isolated normal (wild type) mouse vagus, 1 mg/mL superfused 10 min, capsaicin 1 μM) was “about 75%”. For the same compound, the “Inhibition of Heat Edema (±S.E.M.)” value in series [3] is −1.5 ± 2.0%. Also, in series [1], the “Shaking frequency, Intravenous” value is given as 25 ± 3 shakes; the “Shaking frequency, Perioral” value was 36 shakes and 36 ± 4 shakes; the “Shaking frequency, Topical” value stood at 79 ± 8 shakes. Besides, the “agonist or antagonist activity on TRPA1 channels” value in series [7] is “did not exhibit significant agonist on antagonist activity”. In addition, in series [2], the “×Menthol” value turned out to be 5.4 and the “Relative Potency” value is 5.4. For the same compound, the “agonist or antagonist activity on TRPV1 channels” value in series [8] is listed as “did not exhibit significant agonist on antagonist activity; also recorded: slight non-dose-dependent agonist action”.
As to `CCCCCCCCP(=O)(C(C)C)C(C)C` [DIPA-1-8, 1-Diisopropyl-phosphinoyl-octane], the “Inhibition of Heat Edema (±S.E.M.)” value in series [3] was −5.0 ± 2.7%. For the same compound, in series [1], the “Shaking frequency, Intravenous” value is recorded as 14 ± 2 shakes; the “Shaking frequency, Perioral” value stood at 0 shakes; the “Shaking frequency, Topical” value worked out at 7 ± 2 shakes. The “agonist or antagonist activity on TRPA1 channels” value in series [7] was “did not exhibit significant agonist on antagonist activity”. In series [7] (listed as DAPA-1-8), the “agonist or antagonist activity on TRPA1 channels” value is on record as “devoid of agonist or antagonist activities”. For the same compound, in series [2], the “×Menthol” value amounted to 5.4 and the “Relative Potency” value was 5.4. In addition, the “agonist or antagonist activity on TRPV1 channels” value in series [8] is listed as “did not exhibit significant agonist on antagonist activity”. Also, the “agonist or antagonist activity on TRPV1 channels” value in series [8] (listed as DAPA-1-8) is reported as “devoid of agonist or antagonist activities”.
Take `COc1cc(CNC(=O)CCCC/C=C/C(C)C)ccc1O` [capsaicin, reference compound]: the “agonist or antagonist activity on TRPV1 channels” value in series [8] is reported as “active”.
